We go through twelve molecules from PubChem BioAssay AID256 (DTP/NCI, 2004).

Values joined by “and” are separate entries in the source; they are usually repeats but may differ in a detail not shown here. Equal values may be shown once. Toxic doses and inconclusive results are not listed.

The subject of this test is CD2F1 mice, L1210 leukemia ip, survival T/C. Kind of test: NCI In Vivo Anticancer Drug Screen. Data for tumor model L1210 Leukemia (intraperitoneal) in CD2F1 (CDF1) mice. The conditions noted are these: higher = longer survival. Summed up: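 Mice carrying a transplanted tumor received test compound or vehicle alone. The value is the measurement in the treated group divided by that in the vehicle-treated control group.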

Setting [1] is: endpoint: mean survival time, dose: 100.0 mg/kg/injection, schedule: Q01DX009 (ip), vehicle: saline with Tween-80.
Setting [2] is: endpoint: mean survival time, dose: 12.5 mg/kg/injection, schedule: Q04DX003 (ip), vehicle: saline with Tween-80.
The mark [3] stands for this setting: endpoint: mean survival time, dose: 100.0 mg/kg/injection, schedule: Q01DX001 (ip), vehicle: saline.
The mark [4] stands for this setting: endpoint: mean survival time, dose: 200.0 mg/kg/injection, schedule: Q01DX001 (ip), vehicle: saline.
Setting [5] is: endpoint: mean survival time, dose: 400.0 mg/kg/injection, schedule: Q01DX001 (ip), vehicle: saline.

For the molecule `C[n+]1c(/C=C\C=C\N2CCCCC2)sc2ccccc21`, the T/C was 104 % of control (endpoint: mean survival time, dose: 0.06 mg/kg/injection, schedule: Q01DX009 (ip), vehicle: Klucel (hydroxypropylcellulose) (HPC)); 104 % of control (endpoint: mean survival time, dose: 0.12 mg/kg/injection, schedule: Q01DX009 (ip), vehicle: Klucel (hydroxypropylcellulose) (HPC)); 107 % of control (endpoint: mean survival time, dose: 0.25 mg/kg/injection, schedule: Q01DX009 (ip), vehicle: Klucel (hydroxypropylcellulose) (HPC)); 113 % of control (endpoint: mean survival time, dose: 0.31 mg/kg/injection, schedule: Q01DX009 (ip), vehicle: Klucel (hydroxypropylcellulose) (HPC)); 111 % of control (endpoint: mean survival time, dose: 0.5 mg/kg/injection, schedule: Q01DX009 (ip), vehicle: Klucel (hydroxypropylcellulose) (HPC)); 97 % of control (endpoint: mean survival time, dose: 0.63 mg/kg/injection, schedule: Q01DX009 (ip), vehicle: Klucel (hydroxypropylcellulose) (HPC)). In addition, the T/C runs as follows: (endpoint: mean survival time, dose: 1.0 mg/kg/injection, schedule: Q01DX009 (ip), vehicle: Klucel (hydroxypropylcellulose) (HPC)) 107 % of control; (endpoint: mean survival time, dose: 1.25 mg/kg/injection, schedule: Q01DX009 (ip), vehicle: Klucel (hydroxypropylcellulose) (HPC)) 100 % of control; (endpoint: mean survival time, dose: 2.0 mg/kg/injection, schedule: Q01DX009 (ip), vehicle: Klucel (hydroxypropylcellulose) (HPC)) 118 % of control; (endpoint: mean survival time, dose: 62.0 micrograms/kg/injection, schedule: Q01DX009 (ip), vehicle: Klucel (hydroxypropylcellulose) (HPC)) 104 % of control; (endpoint: mean survival time, dose: 125.0 micrograms/kg/injection, schedule: Q01DX009 (ip), vehicle: Klucel (hydroxypropylcellulose) (HPC)) 102 % of control; (endpoint: mean survival time, dose: 250.0 micrograms/kg/injection, schedule: Q01DX009 (ip), vehicle: Klucel (hydroxypropylcellulose) (HPC)) 101 % of control. Further, the T/C runs as follows: (endpoint: mean survival time, dose: 500.0 micrograms/kg/injection, schedule: Q01DX009 (ip), vehicle: Klucel (hydroxypropylcellulose) (HPC)) 101 % of control; (endpoint: mean survival time, dose: 1000.0 micrograms/kg/injection, schedule: Q01DX009 (ip), vehicle: Klucel (hydroxypropylcellulose) (HPC)) 113 % of control; (endpoint: mean survival time, dose: 2000.0 micrograms/kg/injection, schedule: Q01DX009 (ip), vehicle: Klucel (hydroxypropylcellulose) (HPC)) 108 % of control.
Turning to `CCCCCCCCC[n+]1cccc(C(N)=O)c1`, the T/C is 97 % of control (endpoint: mean survival time, dose: 25.0 mg/kg/injection, schedule: Q01DX009 (ip), vehicle: saline with Tween-80); 101 % of control (endpoint: mean survival time, dose: 50.0 mg/kg/injection, schedule: Q01DX009 (ip), vehicle: saline with Tween-80); 95 % of control under setting [1].
`O=S(=O)(O)O.[NH-]C(c1ccccc1)C([NH-])c1ccccc1.[Pt+2]` (stereo not given): the T/C under setting [2] is 192 % of control; the T/C (endpoint: mean survival time, dose: 25.0 mg/kg/injection, schedule: Q04DX003 (ip), vehicle: saline with Tween-80) was 234 % of control and 197 % of control.
For `COC(=O)C1(C)CCCC2(C)C1CCC13OC1C1(C(C)C)OC1CC23` (stereo not given), the T/C was 98 % of control under setting [1]; 104 % of control (endpoint: mean survival time, dose: 200.0 mg/kg/injection, schedule: Q01DX009 (ip), vehicle: saline with Tween-80); 98 % of control (endpoint: mean survival time, dose: 400.0 mg/kg/injection, schedule: Q01DX009 (ip), vehicle: saline with Tween-80).
For the molecule `Nc1nc(N)c(-c2ccc(Cl)c(Cl)c2)c(CCc2ccc(NC(=O)Nc3ccc(S(=O)(=O)F)cc3)cc2)n1`, the T/C by setting is: (endpoint: mean survival time, dose: 50.0 mg/kg/injection, schedule: Q01DX001 (ip), vehicle: saline with Tween-80) 91 % of control; (endpoint: mean survival time, dose: 100.0 mg/kg/injection, schedule: Q01DX001 (ip), vehicle: saline with Tween-80) 91 % of control; (endpoint: mean survival time, dose: 200.0 mg/kg/injection, schedule: Q01DX001 (ip), vehicle: saline with Tween-80) 94 % of control.
Turning to `CC(C)C(N)C(=O)Nc1nncs1` (stereo not given), the T/C is 103 % of control (endpoint: mean survival time, dose: 25.0 mg/kg/injection, schedule: Q01DX009 (ip), vehicle: saline); 110 % of control (endpoint: mean survival time, dose: 50.0 mg/kg/injection, schedule: Q01DX009 (ip), vehicle: saline); 166 % of control (endpoint: mean survival time, dose: 100.0 mg/kg/injection, schedule: Q01DX009 (ip), vehicle: saline); 117 % of control and 97 % of control (endpoint: mean survival time, dose: 200.0 mg/kg/injection, schedule: Q01DX009 (ip), vehicle: saline); 89 % of control and 90 % of control (endpoint: mean survival time, dose: 400.0 mg/kg/injection, schedule: Q01DX009 (ip), vehicle: saline); 94 % of control (endpoint: median survival time, dose: 12.5 mg/kg/injection, schedule: Q01DX009 (ip), vehicle: saline). For the same molecule, the T/C is 109 % of control and 112 % of control (endpoint: median survival time, dose: 25.0 mg/kg/injection, schedule: Q01DX009 (ip), vehicle: saline); 151 % of control (endpoint: median survival time, dose: 50.0 mg/kg/injection, schedule: Q01DX009 (ip), vehicle: saline); 158 % of control (endpoint: median survival time, dose: 100.0 mg/kg/injection, schedule: Q01DX009 (ip), vehicle: saline); 95 % of control (endpoint: median survival time, dose: 400.0 mg/kg/injection, schedule: Q01DX009 (ip), vehicle: saline).
For the molecule `C/C(C#N)=C/c1ccccc1`, the T/C reads like this: (endpoint: mean survival time, dose: 50.0 mg/kg/injection, schedule: Q01DX009 (ip), vehicle: saline sonified) 108 % of control; (endpoint: mean survival time, dose: 100.0 mg/kg/injection, schedule: Q01DX009 (ip), vehicle: saline sonified) 105 % of control; (endpoint: mean survival time, dose: 100.0 mg/kg/injection, schedule: Q04DX003 (ip), vehicle: saline with Tween-80) 100 % of control; (endpoint: mean survival time, dose: 200.0 mg/kg/injection, schedule: Q01DX009 (ip), vehicle: saline sonified) 105 % of control; (endpoint: mean survival time, dose: 200.0 mg/kg/injection, schedule: Q04DX003 (ip), vehicle: saline with Tween-80) 105 % of control.
As for `Cc1ccc(S(=O)(=O)OCCc2cccc3ccccc23)cc1`, the T/C under setting [3] was 101 % of control, the T/C under setting [4] was 101 % of control and the T/C under setting [5] is 98 % of control.
As to `CCOC(=O)/C(Br)=C/SCCN`, the T/C under setting [3] was 111 % of control, the T/C under setting [4] was 105 % of control and the T/C under setting [5] is 100 % of control.
`O=C(OCC(OC(=O)c1ccccc1)C(OC(=O)c1ccccc1)C(COC(=O)c1ccccc1)OC(=O)c1ccccc1)c1ccccc1` (stereo not given): the T/C is, setting by setting: (endpoint: mean survival time, dose: 50.0 mg/kg/injection, schedule: Q01DX009 (ip), vehicle: Klucel (hydroxypropylcellulose) (HPC)) 97 % of control; (endpoint: mean survival time, dose: 100.0 mg/kg/injection, schedule: Q01DX009 (ip), vehicle: Klucel (hydroxypropylcellulose) (HPC)) 97 % of control; (endpoint: mean survival time, dose: 200.0 mg/kg/injection, schedule: Q01DX009 (ip), vehicle: Klucel (hydroxypropylcellulose) (HPC)) 86 % of control.
Consider `C(=NCCN1CCOCC1)=NC1CCCCC1`, for which the T/C (endpoint: mean survival time, dose: 3.13 mg/kg/injection, schedule: Q01DX009 (ip), vehicle: saline with Tween-80) was 102 % of control; the T/C (endpoint: mean survival time, dose: 6.25 mg/kg/injection, schedule: Q01DX009 (ip), vehicle: saline with Tween-80) is 91 % of control; the T/C (endpoint: mean survival time, dose: 6.25 mg/kg/injection, schedule: Q04DX003 (ip), vehicle: saline with Tween-80) is 100 % of control; the T/C (endpoint: mean survival time, dose: 12.5 mg/kg/injection, schedule: Q01DX009 (ip), vehicle: saline with Tween-80) was 104 % of control; the T/C under setting [2] is 92 % of control.
As to `CCCCCC(=O)O[C@]1(C(C)=O)CC[C@H]2[C@@H]3CCC4=CC(=O)CC[C@]4(C)[C@H]3CC[C@@]21C`, the T/C was 109 % of control (endpoint: median survival time, dose: 25.0 mg/kg/injection, schedule: Q01DX009 (ip), vehicle: saline with Tween-80); 96 % of control (endpoint: median survival time, dose: 50.0 mg/kg/injection, schedule: Q01DX009 (ip), vehicle: saline with Tween-80); 97 % of control (endpoint: median survival time, dose: 100.0 mg/kg/injection, schedule: Q01DX009 (ip), vehicle: saline with Tween-80); 95 % of control (endpoint: median survival time, dose: 200.0 mg/kg/injection, schedule: Q01DX009 (ip), vehicle: saline with Tween-80); 93 % of control (endpoint: median survival time, dose: 400.0 mg/kg/injection, schedule: Q01DX009 (ip), vehicle: saline with Tween-80).
